Source: ChEMBL document CHEMBL4725266, “Decaturenol A and known oxalicine related meroterpenoids isolated from Penicillium decaturense RO050, and their new biological activities” (Bioorg Med Chem Lett, 2020)
pIC50: −log10 of the molar value. Active and inactive are the calls of the source. No cut-off for these calls is given here.

Tests used:
[1] = Cytotoxicity against human MDM cells assessed as reduction in cell viability at 20 ug/ml incubated for 24 hrs by MTT assay; assay type: cell-based; conditions: dose 20 µg/ml
[2] = test system: BMDM; assay: Inhibition of IL-10-induced CD163 expression in human MDM cells at 20 ug/ml incubated for 24 hrs by ELISA; assay type: functional, cell-based; conditions: dose 20.0 µg/ml
[3] = Cytotoxicity against human MDM cells assessed as reduction in cell viability at 40 ug/ml incubated for 24 hrs by MTT assay; assay type: cell-based; conditions: dose 40 µg/ml
[4] = Cytotoxicity against human MDM cells assessed as reduction in cell viability at 20 ug/ml incubated for 48 hrs by MTT assay; assay type: cell-based; conditions: dose 20 µg/ml
[5] = test system: HT-22; assay: Cytotoxicity against mouse HT-22 cells assessed as reduction in cell viability at 10 uM incubated for 24 hrs by MTT assay; assay type: cell-based; conditions: ht-22, 24 h
[6] = test system: HT-22; assay: Protection against TM mediated ER stress-induced cell death in mouse HT-22 cells assessed as increase in cell viability at 10 uM incubated for 24 hrs by MTT assay; assay type: functional, cell-based
[7] = test system: HT-22; assay: Cytotoxicity against mouse HT-22 cells assessed as reduction in cell viability at 10 uM incubated for 24 hrs in presence of tunicamycin by MTT assay; assay type: cell-based; conditions: ht-22, 24 h
[8] = test system: HT-22; assay: Cytotoxicity against mouse HT-22 cells assessed as reduction in cell viability at incubated for 24 hrs by MTT assay; assay type: cell-based; conditions: HT-22, 24 h

SMILES	Activity [1]	inhibition [2]	Activity [3]	Activity [4]	Activity [5]	Activity [6]	Activity [7]	pIC50 [8]
CC1=CC[C@@H]2[C@]34CC[C@](O)(OC3)C(C)(C)[C@@H]4CC[C@@]2(C)[C@@]12Oc1cc(-c3cccnc3)oc(=O)c1[C@@H]2O [DECATURIN B]	Non-Toxic	Active	Toxic	Toxic	Toxic	Active		
C=C(C)[C@@H]1CC[C@]2(C)[C@H](CC=C(C)[C@]23Oc2cc(-c4cccnc4)oc(=O)c2[C@@H]3O)[C@@]12CCC(=O)OC2 [OXALICINE A]							Toxic	5.23
C/C(=C\CC/C(C)=C/Cc1c(O)cc(-c2cccnc2)oc1=O)CC/C=C(\C)CCC(O)C(C)(C)O (centres undefined)	Non-Toxic	Active	Toxic	Toxic	Non-Toxic	Active		
CC1=CC[C@@H]2[C@@]3(C)CCC(=O)C(C)(C)[C@@H]3CC[C@@]2(C)[C@]12Cc1c(cc(-c3cccnc3)oc1=O)O2 [DECATURIN D]	Non-Toxic	Active	Toxic	Toxic	Toxic	Active		
CC1=CC[C@@H]2[C@@]3(C)CC[C@H](O)C(C)(C)[C@@H]3CC[C@@]2(C)[C@]12Cc1c(cc(-c3cccnc3)oc1=O)O2	Non-Toxic	Active	Toxic	Toxic				
